Columns and labels:
HCT/Mock cells [1] = experiment: Clonogenic assay for anticancer drug sensitivity, control cells; format: cell-based, human; conditions: 10 days
Procedure: (§1) First, MTKG cells and HCT/Mock cells as a control group were inoculated at a cell density of 10^3 cells/well in a 6-well plate containing RPMI 1640 medium, followed by addition of an anticancer drug (doxorubicin or paclitaxel) at different concentrations (0, 1, 5, 10, 50, 100, 500, and 1000 nM) and incubation for 10 days. Thereafter, the culture medium was eliminated, and the cells were washed three times with a phosphate buffer and stained with a dye (Diff Quick staining kit). Colony formation was confirmed and colony count was made.

MTKG cells [2] = experiment: Clonogenic assay for anticancer drug sensitivity, transfected cells; format: cell-based; conditions: Homo sapiens, 240 h, 10 days, read-out: inhibition of cell proliferation
Procedure: as §1

MTKG cells [3] = experiment: Clonogenic assay, co-administration of ganciclovir and doxorubicin; format: cell-based, human; conditions: 10 days
Procedure: In order to confirm effects of co-administration of an anti-viral drug ganciclovir and an anticancer drug (doxorubicin) on cancer cells, clonogenic assay was carried out. For this purpose, first, MTKG cells were inoculated and cultured in a 100 mm plate containing RPMI 1640 medium, and the cells were then washed three times with a fresh medium. The cells were desorbed from the plate using trypsin-EDTA, and 1×10^3 cells were counted and inoculated into a 6-well plate with addition of ganciclovir (0.1 μCi) and doxorubicin at two different concentrations (10 and 25 nM), followed by incubation. 10 days after incubation, the culture medium was eliminated, and the cells were washed three times with a phosphate buffer and stained with a dye (Diff Quick staining kit). Colony formation was confirmed and colony count was made.

MTKG cells [4] = experiment: Intracellular accumulation of [H3]-ganciclovir; format: cell-based, human; conditions: 0.76 μCi/mL [H3]-ganciclovir, 45 min at 37° C., MTKG cells compared to HCT-15 and HCT/Mock cells, FIG. 5A
Procedure: A degree of intracellular ganciclovir accumulation by the TK-GFP gene was investigated as follows. MTKG cells constructed in Section 1-3 of Example 1, and HCT-15 and HCT/Mock cells as a control group were cultured in 6-well plates containing RPMI 1640 medium for 48 hours, to which 0.76 μCi/mL of an isotope-labeled ganciclovir ([H^3]-Ganciclovir, Moravek, USA) was then added, followed by incubation at 37° C. for 45 min. Then, the plate was washed three times with a phosphate buffer and a cell lysis buffer (50 mM Tris-HCl, 150 mM NaCl, and 1% SDS) was added thereto to lyse the cells. For each cell lysate sample, an isotope activity was measured using a beta-counter.

MTKG cells [5] = experiment: Cell proliferation assay (CellTiter 96 Aqueous One Solution) for ganciclovir sensitivity; format: cell-based, human; conditions: ganciclovir concentration of 0.1 μM or higher, 4 days, FIG. 5B
Excerpt: (§2) Whether increased intracellular accumulation capacity of ganciclovir confirmed in Section 5-1 leads to the enhanced drug sensitivity of MTKG cells to ganciclovir was examined by a cell proliferation assay using CellTiter 96 Aqueous One Solution cell proliferation assay kit (Promega, USA), First, MTKG cells and HCT/Mock cells as a control group were inoculated at a cell density of 10^2 cells/well in a 96-well plate containing RPMI 1640 medium, followed by addition of ganciclovir at different concentrations (0, 0.1, 1, and 10 μM) and incubation for 4 days. Thereafter, 20 μl of detection solution were added to each well. The cells were incubated for 90 min at 37° C. and then measured absorbance at 490 nm using miroplate reader (BioRad, USA). From the experimental results shown in FIG. 5B, it was confirmed that proliferation of HCT-15 and HCT/Mock cells as a control group was not affected by administration of ganciclovir, whereas proliferation of the MTKG cells was affected even at a ganciclovir concentration of 0.1 μM or higher, thus representing increased drug sensitivity of the cell.

HCT-15 cells = experiment: as above; format: cell-based, human; conditions: ganciclovir 0.1, 1, 10 μM, 4 days, FIG. 5B
Excerpt: as §2

HCT/Mock cells [6] = experiment: as above; format: cell-based, human; conditions: ganciclovir 0.1, 1, 10 μM, 4 days, FIG. 5B
Excerpt: as §2

MTKG cells [7] = experiment: Intracellular accumulation of [3H]-paclitaxel; format: cell-based, human; conditions: 50 nM [3H]-paclitaxel, 2 hours at 37° C., MTKG cells compared to HCT-15 and HCT/Mock cells, FIG. 4A
Procedure: A degree of intracellular drug accumulation by MDR1 shRNA was investigated. MTKG cells constructed in Section 1-3 of Example 1, and HCT-15 and HCT/Mock cells as a control group were cultured in 6-well plates containing RPMI 1640 medium for 48 hours, to which 50 nM of an isotope-labeled anticancer drug ([^3H]-paclitaxel, Moravek, USA) was then added, followed by incubation at 37° C. for 2 hours. Then, the plate was washed three times with a phosphate buffer, and a cell lysis buffer (50 mM Tris-HCl, 150 mM NaCl, and 1% SDS) was added thereto to lyse the cells. For each cell lysate sample, an isotope activity was measured using a beta-counter.

MDR1 mRNA = experiment: RT-PCR analysis of MDR1 mRNA expression in transfected cells; format: cell-based, human; conditions: MTKG cells vs HCT-15 and HCT/Mock, FIG. 2A
Procedure: Expression of MDR1 shRNA in MTKG cells of Section 1-3 of Example 1 was examined by RT-PCR For this purpose, total RNA was isolated from HCT-15, HCT/Mock, and MTKG cells, using Trizol reagent (Invitrogen) according to the manufacturer's instructions. Then, cDNA was prepared using 2 μg of the isolated total RNA as a template, and Oligo(dT)15 primer (Bionics, Seoul, Korea) and reverse transcriptase (Promega). PCR amplification for MDR1 mRNA was carried out using the prepared cDNA as a template and a pair of primers (SEQ ID NOS: 12 and 13). PCR was carried out as follows: initial denaturation of template cDNA at 94° C. for 2 min, followed by 30 cycles of denaturation at 94° C. for 30 seconds, annealing at 60° C. for 30 seconds and extension at 72° C. for 1 min.

P-glycoprotein = experiment: Western blot analysis of P-glycoprotein expression in transfected cells; format: cell-based, human; conditions: MTKG cells vs control cell line, FIG. 2B
Procedure: In order to investigate whether intracellular incorporation of MDR1 shRNA inhibits expression of P-glycoprotein which is an expression product of the MDR1 gene, Western blot analysis was carried out for proteins isolated from HCT-15, HCT/Mock, and MTKG cells, respectively. The procedure will be briefly described as follows. HCT-15, HCT/Mock, and MTKG cells were lysed in a cell lysis buffer (containing 50 mM Tris-HCl, 150 mM NaCl, 1% Triton X-100, 1 mM CaCl2, 1 mM MgC2 and protease inhibitor cocktail (Roche, USA), pH 7.4). 30 μg of each protein in the cell lysates was subjected to electrophoresis on polyacrylamide gel containing 7% SDS, and the developed protein gel was transferred to a nitrocellulose membrane. Thereafter, anti-P-glycoprotein antibodies (clone C219, Calbiochem, USA) were diluted in a TBS-T solution (50 mM Tris-HCl, pH 7.6, 150 mM NaCl, 0.1% Tween 20) and were allowed to react and bind with a nitrocellulose membrane for more than 16 hours under refrigeration conditions. After the reaction was complete, the membrane was washed three times with a TBS-T solution, followed by binding reaction with horseradish peroxidase (HRP)-conjugated anti-mouse IgG antibodies (Santa Cruz, USA) for 1 hour at room temperature. […]

With `COc1cccc2c1C(=O)c1c(O)c3c(c(O)c1C2=O)C[C@@](O)(C(=O)CO)C[C@@H]3O[C@H]1C[C@H](N)[C@H](O)[C@H](C)O1` [doxorubicin] the “inhibition of cell proliferation” value (HCT/Mock cells [1]; doxorubicin concentration of 500 nM or higher, FIG. 4B) was ≥ 90%, the inhibition at 0.05 µM (MTKG cells [2]; doxorubicin concentration of 50 nM, FIG. 4B) was ≥ 90% and the cell survival rate (MTKG cells [3]; 10 nM doxorubicin alone) was 78.8±7.8%. The cell survival rate (MTKG cells [3]; 25 nM doxorubicin alone) was 37.7±3.3%.

With `Nc1nc(O)c2ncn(COC(CO)CO)c2n1` [ganciclovir] the cell survival rate (MTKG cells [3]; 0.1 μCi ganciclovir alone) was 61.1±4.1%, the accumulation of ganciclovir (MTKG cells [4]) was “higher accumulation” and the “proliferation of cells on administration of ganciclovir” value (from here on “proliferation of cells”) (MTKG cells [5]) was “affected”. The “proliferation of cells” value (HCT-15 cells) was “not affected” and the “proliferation of cells” value (HCT/Mock cells [6]) was “not affected”.

In the case of `CC(=O)O[C@H]1C(=O)[C@@]2(C)[C@H]([C@H](OC(=O)c3ccccc3)[C@]3(O)C[C@H](OC(=O)[C@H](O)[C@@H](NC(=O)c4ccccc4)c4ccccc4)C(C)=C1C3(C)C)[C@]1(OC(C)=O)CO[C@@H]1C[C@@H]2O` [paclitaxel], the inhibition at 0.1 µM (HCT/Mock cells [1]; Homo sapiens, 240 h, paclitaxel concentration of 100 nM, FIG. 4C, read-out: inhibition of cell proliferation) is reported as ≥ 70%, the inhibition at 0.01 µM (MTKG cells [2]; paclitaxel concentration of 10 nM, FIG. 4C) is reported as ≥ 70% and the accumulation of paclitaxel (MTKG cells [7]) is reported as “higher accumulation”.

B1: MDR1 shRNA: shRNA with sense and antisense sequences for target SEQ ID NO: 6 (5′-GGCCUAAUGCCGAACACAU-3′), CGAA loop, expressed from U6 promoter (nucleic acid)
sense: GATCCCGGCCTAATGCCGAACACATCGAAATGTGTTCGGCATTAGGCCTTTTTTCCAAC
antisense: TCGAGTTGGAAAAAAGGCCTAATGCCGAACACATTTCGATGTGTTCGGCATTAGGCCGG
modifications: the letters are possibly those of the target site
B1 was tested, and the “level of MDR1 mRNA” value (MDR1 mRNA) was “decreased level of MDR1 mRNA” and the P-glycoprotein expression (P-glycoprotein) was “inhibition of P-glycoprotein expression”.

From US20090214435A1, “Recombinant vector expressing MDR1 shRNA and thymidine kinase and use thereof” (Kyungpook National University Industry-Academic Cooperation …, priority 2007, published 2009)
